Molecules are shown by their SMILES.

The text below walks through data of patent US10442778B2, “N1-phenylpropane-1,2-diamine compounds with selective activity in voltage-gated sodium channels” (Merck Sharp & Dohme Corp., priority 2016, dated 2019).

Assay [1] concerns the target T1, human Nav1.5 channels stably expressed in HEK 293 cells (Homo sapiens, UniProt Q14524).
T1 construct: expressed in transfected cells; host or cells: HEK 293
Description: IonWorks Quattro automated patch-clamp, inactivated state block of Nav1.5 (selectivity). Format: cell-based. The settings on record: IonWorks measurement, both channels in HEK 293 cells. On the procedure:
(§1) Compounds were tested on human Nav1.7 and Nav1.5 channels stably expressed in HEK 293 cells. […] Cells were sealed on a planar substrate using the Population Patch Plate (PPC) technology. Electrical access was obtained using both nystatin and amphotericin. A double-pulse protocol was used for the determination of IC50 values for inactivated state block. Nav1.7 and Nav1.5 expressing cells were voltage clamped at −100 mV and −110 mV, respectively. A depolarizing prepulse to −10 mV (Nav1.7) or −30 mV (Nav1.5) for 1000 ms followed by a 10 ms repolarization to −100 mV (Nav1.7) or −110 mV (Nav1.5) was given to generate fractional channel inactivation of ˜50%, followed by a 10 ms test pulse to −10 mV (Nav1.7) or −30 mV (Nav1.5) to measure peak current in control conditions and after compound addition. The following recording solutions were used (mM). External: 150 NaCl, 2 CaCl2, 5 KCl, 1 Mg Cl2, 10 HEPES, 12 Dextrose; internal: 120 CsF, 30 CsCl, 10 EGTA, 5 HEPES, 5 NaF, 2 MgCl2.
(§2) For all electrophysiology experiments, offline analysis was used to determine percent inhibition as a function of drug concentration. IC50 values were determined by fitting to the Hill equation.
For orientation: In patch-clamp work, channel activity is measured electrically.

For assay [2], the target named is T2, human Nav1.7 channels stably expressed in HEK 293 cells (Homo sapiens, UniProt Q15858).
T2 construct: expressed in transfected cells; host or cells: HEK 293
Kind of assay: IonWorks Quattro automated patch-clamp, inactivated state block of Nav1.7. Format: cell-based. The settings on record: double-pulse protocol, read-out: potency for the Nav 1.7 sodium ion channel (as measured by IonWorks). On the procedure:
as §1, §2

T2 sequence (Q15858 whole entry): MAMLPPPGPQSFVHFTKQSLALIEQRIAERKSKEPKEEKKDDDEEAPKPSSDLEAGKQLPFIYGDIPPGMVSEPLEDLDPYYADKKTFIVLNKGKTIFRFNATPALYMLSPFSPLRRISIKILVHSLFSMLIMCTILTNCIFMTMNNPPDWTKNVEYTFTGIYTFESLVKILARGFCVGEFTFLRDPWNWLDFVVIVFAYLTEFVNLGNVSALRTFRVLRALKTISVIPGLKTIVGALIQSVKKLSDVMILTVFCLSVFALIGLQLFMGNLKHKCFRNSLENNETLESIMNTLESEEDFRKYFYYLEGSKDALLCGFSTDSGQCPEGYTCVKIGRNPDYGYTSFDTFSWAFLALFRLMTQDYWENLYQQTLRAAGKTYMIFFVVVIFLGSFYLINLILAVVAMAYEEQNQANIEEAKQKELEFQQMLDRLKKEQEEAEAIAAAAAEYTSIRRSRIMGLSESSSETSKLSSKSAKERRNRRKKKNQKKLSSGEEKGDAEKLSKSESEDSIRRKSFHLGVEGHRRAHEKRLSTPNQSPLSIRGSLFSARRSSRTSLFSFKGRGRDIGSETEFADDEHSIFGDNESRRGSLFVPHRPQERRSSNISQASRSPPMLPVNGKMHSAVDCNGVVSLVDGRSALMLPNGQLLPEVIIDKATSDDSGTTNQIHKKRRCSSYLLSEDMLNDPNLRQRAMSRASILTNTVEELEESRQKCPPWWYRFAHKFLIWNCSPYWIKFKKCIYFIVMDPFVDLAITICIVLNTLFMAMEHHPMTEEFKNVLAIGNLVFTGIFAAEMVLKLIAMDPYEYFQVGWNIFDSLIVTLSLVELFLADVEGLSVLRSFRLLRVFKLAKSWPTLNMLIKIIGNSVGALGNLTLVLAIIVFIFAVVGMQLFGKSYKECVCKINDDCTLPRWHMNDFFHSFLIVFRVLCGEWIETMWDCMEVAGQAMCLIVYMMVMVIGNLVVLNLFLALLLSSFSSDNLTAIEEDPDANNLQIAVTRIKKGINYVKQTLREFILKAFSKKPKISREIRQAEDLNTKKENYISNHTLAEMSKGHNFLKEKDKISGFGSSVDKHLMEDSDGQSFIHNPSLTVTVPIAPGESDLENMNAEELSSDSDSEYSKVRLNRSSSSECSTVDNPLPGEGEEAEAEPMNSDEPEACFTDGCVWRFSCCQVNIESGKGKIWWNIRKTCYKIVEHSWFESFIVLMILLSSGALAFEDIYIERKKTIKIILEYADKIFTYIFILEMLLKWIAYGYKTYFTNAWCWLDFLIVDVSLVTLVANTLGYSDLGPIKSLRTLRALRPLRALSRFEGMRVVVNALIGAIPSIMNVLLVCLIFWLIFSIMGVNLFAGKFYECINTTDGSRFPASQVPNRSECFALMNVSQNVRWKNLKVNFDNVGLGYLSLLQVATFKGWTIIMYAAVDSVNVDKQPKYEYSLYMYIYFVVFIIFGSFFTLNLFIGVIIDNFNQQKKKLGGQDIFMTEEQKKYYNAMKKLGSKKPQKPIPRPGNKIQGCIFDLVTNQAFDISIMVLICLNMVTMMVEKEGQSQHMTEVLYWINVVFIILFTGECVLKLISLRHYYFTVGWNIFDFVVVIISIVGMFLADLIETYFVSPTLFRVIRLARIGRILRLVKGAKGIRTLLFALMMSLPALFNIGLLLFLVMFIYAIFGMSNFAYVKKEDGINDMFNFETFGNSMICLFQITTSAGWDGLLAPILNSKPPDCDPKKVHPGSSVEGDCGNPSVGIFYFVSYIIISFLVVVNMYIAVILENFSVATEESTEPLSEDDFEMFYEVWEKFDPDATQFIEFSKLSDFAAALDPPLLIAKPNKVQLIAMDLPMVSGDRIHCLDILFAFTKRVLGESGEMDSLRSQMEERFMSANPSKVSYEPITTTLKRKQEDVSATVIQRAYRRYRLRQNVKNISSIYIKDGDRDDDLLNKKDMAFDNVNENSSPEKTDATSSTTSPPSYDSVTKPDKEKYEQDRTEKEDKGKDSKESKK
T1 sequence (Q14524 whole entry): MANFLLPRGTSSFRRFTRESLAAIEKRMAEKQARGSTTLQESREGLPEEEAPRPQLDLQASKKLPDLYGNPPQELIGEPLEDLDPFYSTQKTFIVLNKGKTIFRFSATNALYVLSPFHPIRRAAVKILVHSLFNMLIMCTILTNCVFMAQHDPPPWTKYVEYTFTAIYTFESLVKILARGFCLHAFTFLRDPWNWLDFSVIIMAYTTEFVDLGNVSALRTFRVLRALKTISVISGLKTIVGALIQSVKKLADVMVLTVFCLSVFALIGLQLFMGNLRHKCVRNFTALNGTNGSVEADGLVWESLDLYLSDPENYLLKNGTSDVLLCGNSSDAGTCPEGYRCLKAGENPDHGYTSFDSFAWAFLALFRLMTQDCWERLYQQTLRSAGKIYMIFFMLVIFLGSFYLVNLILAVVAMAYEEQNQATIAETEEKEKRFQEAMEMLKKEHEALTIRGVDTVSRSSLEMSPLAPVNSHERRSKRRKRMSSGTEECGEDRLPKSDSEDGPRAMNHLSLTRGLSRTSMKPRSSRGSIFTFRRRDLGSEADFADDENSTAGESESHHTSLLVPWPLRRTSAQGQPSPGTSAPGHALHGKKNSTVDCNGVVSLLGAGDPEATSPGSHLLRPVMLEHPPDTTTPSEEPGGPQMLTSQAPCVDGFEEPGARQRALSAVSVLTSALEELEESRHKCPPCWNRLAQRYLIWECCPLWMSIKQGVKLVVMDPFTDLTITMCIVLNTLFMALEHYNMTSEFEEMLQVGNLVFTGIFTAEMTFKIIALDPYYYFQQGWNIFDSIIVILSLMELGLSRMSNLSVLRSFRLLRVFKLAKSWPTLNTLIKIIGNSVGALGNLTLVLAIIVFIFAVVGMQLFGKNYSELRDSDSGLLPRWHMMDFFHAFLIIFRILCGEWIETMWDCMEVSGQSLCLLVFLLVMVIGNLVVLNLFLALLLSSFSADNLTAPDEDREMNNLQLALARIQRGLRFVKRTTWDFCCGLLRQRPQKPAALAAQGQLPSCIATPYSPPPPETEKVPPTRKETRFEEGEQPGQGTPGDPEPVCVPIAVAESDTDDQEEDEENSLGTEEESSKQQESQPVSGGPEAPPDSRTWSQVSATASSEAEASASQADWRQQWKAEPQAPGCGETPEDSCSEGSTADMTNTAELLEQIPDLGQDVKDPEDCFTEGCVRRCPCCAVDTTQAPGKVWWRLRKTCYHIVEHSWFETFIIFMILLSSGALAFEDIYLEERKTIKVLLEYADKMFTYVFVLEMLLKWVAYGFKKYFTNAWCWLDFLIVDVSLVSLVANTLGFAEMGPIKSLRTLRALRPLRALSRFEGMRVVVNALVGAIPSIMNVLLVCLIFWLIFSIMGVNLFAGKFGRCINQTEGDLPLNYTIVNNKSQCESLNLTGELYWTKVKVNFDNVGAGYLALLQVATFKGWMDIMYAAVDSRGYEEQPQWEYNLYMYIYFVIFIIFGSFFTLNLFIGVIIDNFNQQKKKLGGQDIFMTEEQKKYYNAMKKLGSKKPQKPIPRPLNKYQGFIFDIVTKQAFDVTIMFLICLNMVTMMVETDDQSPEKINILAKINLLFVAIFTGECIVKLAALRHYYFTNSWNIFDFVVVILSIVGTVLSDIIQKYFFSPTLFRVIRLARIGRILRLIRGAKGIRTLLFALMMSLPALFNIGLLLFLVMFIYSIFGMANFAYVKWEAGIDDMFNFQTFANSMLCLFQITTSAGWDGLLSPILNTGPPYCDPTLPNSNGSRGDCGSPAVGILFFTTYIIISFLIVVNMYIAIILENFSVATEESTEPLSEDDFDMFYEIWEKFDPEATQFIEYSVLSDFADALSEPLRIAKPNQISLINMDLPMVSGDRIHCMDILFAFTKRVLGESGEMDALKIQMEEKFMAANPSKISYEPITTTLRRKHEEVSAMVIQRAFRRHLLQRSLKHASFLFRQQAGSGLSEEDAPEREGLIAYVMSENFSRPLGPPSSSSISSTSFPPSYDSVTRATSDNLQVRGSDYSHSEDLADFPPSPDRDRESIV

Consider `CN[C@H](CNc1cc(F)c(S(=O)(=O)Nc2nccs2)cc1Cl)Cc1ccc(F)cc1` (single isomer, unassigned) [Ex1-12], for which the “ratio of Nav1.7 potency:Nav 1.5 potency” value in assay [1] was above 541. Further, the IC50 in assay [2] amounted to 61 nM.

Consider `CN[C@H](CNc1cc(F)c(S(=O)(=O)Nc2ncc(F)s2)cc1Cl)CC1CCCC1` (single isomer, unassigned) [Ex3-11], for which the IC50 in assay [2] worked out at 110 nM.

Take `CN[C@H](CNc1cc(F)c(S(=O)(=O)Nc2ncc(F)s2)cc1Cl)CC1(CF)CC1` (single isomer, unassigned) [Ex5-4]: the “ratio of Nav1.7 potency:Nav 1.5 potency” value in assay [1] is above 14. For the same compound, the IC50 in assay [2] came out at 2000 nM.

On to `CN[C@H](CNc1cc(F)c(S(=O)(=O)Nc2nccs2)cc1Cl)Cc1ccccc1` [Ex1-7, (S)-5-chloro-2-fluoro-4-((2-(methylamino)-3-phenylpropyl)amino)-N-(thiazol-2-yl)benzenesulfonamide], for which the IC50 in assay [2] was determined as 200 nM.

In the case of `CN[C@H](CNc1cc(F)c(S(=O)(=O)Nc2nccs2)cc1Cl)CC1CCCCC1` [Ex1-18, (S)-5-chloro-4-((3-cyclohexyl-2-(methylamino)propyl)amino)-2-fluoro-N-(thiazol-2-yl)benzenesulfonamide], the “ratio of Nav1.7 potency:Nav 1.5 potency” value in assay [1] is above 2200. In addition, in assay [2], the IC50 came to 15 nM.

`CN[C@H](CNc1cc(F)c(S(=O)(=O)Nc2nccs2)cc1Cl)Cc1cccc(Cl)c1` [Ex1-19, (S)-5-chloro-4-((3-(3-chlorophenyl)-2-(methyl-amino)propyl)-amino)-2-fluoro-N-(thiazol-2-yl)-benzenesulfonamide]: in assay [1], the “ratio of Nav1.7 potency:Nav 1.5 potency” value was above 1375. For the same compound, the IC50 in assay [2] came to 24 nM.

In the case of `CN[C@H](CNc1cc(F)c(S(=O)(=O)Nc2nccs2)cc1Cl)Cc1ccc(C)cc1` [Ex1-20, (S)-5-chloro-2-fluoro-4-((2-(methylamino)-3-(p-tolyl)propyl)amino)-N-(thiazol-2-yl)-benzenesulfonamide], in assay [1], the “ratio of Nav1.7 potency:Nav 1.5 potency” value is recorded as above 118. Further, the IC50 in assay [2] came to 280 nM.

`CN[C@@H](CCc1ccccc1)CNc1cc(F)c(S(=O)(=O)Nc2nccs2)cc1Cl` [Ex1-21, (S)-5-chloro-2-fluoro-4-((2-(methylamino)-4-phenylbutyl)amino)-N-(thiazol-2-yl)-benzenesulfonamide]: the IC50 in assay [2] stood at 200 nM.

On to `CN[C@@H](CCc1ccccc1)CNc1cc(F)c(S(=O)(=O)Nc2ncc(F)s2)cc1Cl` [Ex1-22, (S)-5-chloro-2-fluoro-N-(5-fluorothiazol-2-yl)-4-((2-(methylamino)-4-phenylbutyl)amino)-benzenesulfonamide], for which the “ratio of Nav1.7 potency:Nav 1.5 potency” value in assay [1] is given as above 236. Also, the IC50 in assay [2] worked out at 140 nM.

In the case of `CN[C@H](CNc1cc(F)c(S(=O)(=O)Nc2nccs2)cc1Cl)Cc1cccc(Br)c1` [Ex1-23, (S)-4-((3-(3-bromo-phenyl)-2-(methylamino)-propyl)amino)-5-chloro-2-fluoro-N-(thiazol-2-yl)-benzenesulfonamide], the “ratio of Nav1.7 potency:Nav 1.5 potency” value in assay [1] was above 917. Also, the IC50 in assay [2] was determined as 36 nM.

As to `CN[C@H](CNc1cc(F)c(S(=O)(=O)Nc2nccs2)cc1Cl)Cc1ccccc1Br` [Ex1-24, (S)-4-((3-(2-bromo-phenyl)-2-(methylamino)-propyl)amino)-5-chloro-2-fluoro-N-(thiazol-2-yl)-benzenesulfonamide], in assay [1], the “ratio of Nav1.7 potency:Nav 1.5 potency” value is recorded as above 75. The IC50 in assay [2] is 440 nM.

Take `CN[C@H](CNc1cc(F)c(S(=O)(=O)Nc2nccs2)cc1Cl)Cc1ccc(Br)cc1` [Ex1-25, (S)-4-((3-(4-bromo-phenyl)-2-(methylamino)-propyl)amino)-5-chloro-2-fluoro-N-(thiazol-2-yl)-benzenesulfonamide]: the IC50 in assay [2] came to 110 nM.

In the case of `CN[C@H](CNc1cc(F)c(S(=O)(=O)Nc2ncns2)cc1Cl)Cc1ccccc1` [Ex1-26, (S)-5-chloro-2-fluoro-4-((2-(methylamino)-3-phenylpropyl)amino)-N-(1,2,4-thiadiazol-5-yl)-benzenesulfonamide], the IC50 in assay [2] turned out to be 200 nM.

Take `CN[C@H](CNc1cc(F)c(S(=O)(=O)Nc2ncc(F)s2)cc1Cl)Cc1ccccc1` [Ex1-27, (S)-5-chloro-2-fluoro-N-(5-fluorothiazol-2-yl)-4-((2-(methylamino)-3-phenylpropyl)amino)-benzenesulfonamide]: the “ratio of Nav1.7 potency:Nav 1.5 potency” value in assay [1] is on record as above 174. Further, in assay [2], the IC50 stood at 190 nM.

Turning to `CN[C@H](CNc1cc(F)c(S(=O)(=O)Nc2nccs2)cc1Cl)Cc1cccc(F)c1` [Ex1-28, (S)-5-chloro-2-fluoro-4-((3-(3-fluorophenyl)-2-(methylamino)-propyl)-amino)-N-(thiazol-2-yl)-benzenesulfonamide], the “ratio of Nav1.7 potency:Nav 1.5 potency” value in assay [1] is above 1031. In addition, the IC50 in assay [2] worked out at 32 nM.

As for `CN[C@H](CNc1cc(F)c(S(=O)(=O)Nc2nccs2)cc1Cl)Cc1ccccc1F` [Ex1-29, (S)-5-chloro-2-fluoro-4-((3-(2-fluorophenyl)-2-(methylamino)-propyl)-amino)-N-(thiazol-2-yl)-benzenesulfonamide], in assay [1], the “ratio of Nav1.7 potency:Nav 1.5 potency” value is above 106. Further, the IC50 in assay [2] is 310 nM.

In the case of `CN[C@H](CNc1cc(F)c(S(=O)(=O)Nc2nccs2)cc1Cl)Cc1cc(F)cc(F)c1` [Ex1-30, (S)-5-chloro-4-((3-(3,5-difluorophenyl)-2-(methyl-amino)-propyl)amino)-2-fluoro-N-(thiazol-2-yl)-benzenesulfonamide], the “ratio of Nav1.7 potency:Nav 1.5 potency” value in assay [1] is on record as above 206. Also, the IC50 in assay [2] amounted to 160 nM.

Regarding `CN[C@H](CNc1cc(F)c(S(=O)(=O)Nc2nccs2)cc1Cl)Cc1ccc(F)c(F)c1` [Ex1-31, (S)-5-chloro-4-((3-(3,4-difluorophenyl)-2-(methyl-amino)propyl)amino)-2-fluoro-N-(thiazol-2-yl)-benzenesulfonamide], the “ratio of Nav1.7 potency:Nav 1.5 potency” value in assay [1] is listed as above 1100. Further, the IC50 in assay [2] amounted to 30 nM.

On to `CN[C@H](CNc1cc(F)c(S(=O)(=O)Nc2nccs2)cc1Cl)Cc1ccc(F)cc1Br` [Ex1-32, (S)-4-((3-(2-bromo-4-fluorophenyl)-2-(methyl-amino)propyl)-amino)-5-chloro-2-fluoro-N-(thiazol-2-yl)-benzenesulfonamide], for which the IC50 in assay [2] was 170 nM.

`CN[C@H](CNc1cc(F)c(S(=O)(=O)Nc2nccs2)cc1Cl)Cc1cccc(F)c1Br` [Ex1-33, (S)-4-((3-(2-bromo-3-fluorophenyl)-2-(methyl-amino)propyl)-amino)-5-chloro-2-fluoro-N-(thiazol-2-yl)-benzenesulfonamide]: the “ratio of Nav1.7 potency:Nav 1.5 potency” value in assay [1] is given as above 254. Besides, the IC50 in assay [2] was determined as 130 nM.

For `CN[C@H](CNc1cc(F)c(S(=O)(=O)Nc2nccs2)cc1Cl)Cc1ccc(Cl)cc1` [Ex1-34, (S)-5-chloro-4-((3-(4-chlorophenyl)-2-(methyl-amino)propyl)amino)-2-fluoro-N-(thiazol-2-yl)-benzenesulfonamide], the “ratio of Nav1.7 potency:Nav 1.5 potency” value in assay [1] is on record as above 1000. In assay [2], the IC50 was 33 nM.

In the case of `CN[C@H](CNc1cc(F)c(S(=O)(=O)Nc2ncc(F)s2)cc1Cl)CC1CCC1` [Ex2-12, (S)-5-chloro-4-((3-cyclobutyl-2-(methylamino)propyl)amino)-2-fluoro-N-(5-fluorothiazol-2-yl)benzenesulfonamide], the “ratio of Nav1.7 potency:Nav 1.5 potency” value in assay [1] is above 32. Besides, the IC50 in assay [2] is 1030 nM.

As to `CN[C@H](CNc1cc(F)c(S(=O)(=O)Nc2ncc(F)s2)cc1Cl)CC12CC(C1)C2` [Ex2-13, (S)-4-((3-(bicyclo[1.1.1]pentan-1-yl)-2-(methylamino)propyl)-amino)-5-chloro-2-fluoro-N-(5-fluorothiazol-2-yl)-benzenesulfonamide], in assay [1], the “ratio of Nav1.7 potency:Nav 1.5 potency” value is listed as above 611. The IC50 in assay [2] came to 54 nM.

Regarding `CN[C@H](CNc1cc(F)c(S(=O)(=O)Nc2ncc(F)s2)cc1Cl)CC1(C(F)(F)F)CC1` [Ex2-14, (S)-5-chloro-2-fluoro-N-(5-fluorothiazol-2-yl)-4-((2-(methylamino)-3-(1-(trifluoromethyl)cyclopropyl)-propyl)amino)benzenesulfonamide], the IC50 in assay [2] was found to be 170 nM.

Take `CN[C@@H](CCC(C)(C)C)CNc1cc(F)c(S(=O)(=O)Nc2ncc(F)s2)cc1Cl` [Ex2-15, (S)-5-chloro-4-((5,5-dimethyl-2-(methylamino)hexyl)amino)-2-fluoro-N-(5-fluorothiazol-2-yl)-benzenesulfonamide]: the “ratio of Nav1.7 potency:Nav 1.5 potency” value in assay [1] is on record as above 49. The IC50 in assay [2] amounted to 670 nM.

For `CN[C@H](CNc1cc(F)c(S(=O)(=O)Nc2ncc(F)s2)cc1Cl)CC1CC1(Cl)Cl` (stereo partly drawn) [Ex2-21, 5-chloro-4-(((2S)-3-(2,2-dichlorocyclopropyl)-2-(methylamino)propyl)amino)-2-fluoro-N-(5-fluorothiazol-2-yl)-benzenesulfonamide], the IC50 in assay [2] was found to be 110 nM.

Consider `CN(C)[C@H](CNc1cc(F)c(S(=O)(=O)Nc2ncc(F)s2)cc1Cl)CC1(C)CC1` [Ex7-3, (S)-5-chloro-4-((2-(dimethylamino)-3-(1-methylcyclopropyl)propyl)amino)-2-fluoro-N-(5-fluorothiazol-2-yl)benzenesulfonamide], for which, in assay [2], the IC50 amounted to 150 nM.
